Test results published in patent publication US20220119354A1, “DIAMINO-SUBSTITUTED PYRIDINES AND PYRIMIDINES AS HERBICIDES” (FMC Corporation, priority 2019, published 2022).

Legend:
Format in all cases: in vivo
[1] = test system: barnyardgrass (Echinochloa crus-galli); assay: Test A preemergence, barnyardgrass; conditions: 0 to 100 scale
From the text: (§1) Seeds of plant species selected from barnyardgrass (Echinochloa crus-galli), kochia (Kochia scoparia), ragweed (common ragweed, Ambrosia elatior), ryegrass, Italian (Lolium multiflorum), foxtail, giant (Setaria faberii), foxtail, green (Setaria viridis), and pigweed (Amaranthus retroflexus) were planted into a blend of loam soil and sand and treated preemergence with a directed soil spray using test chemicals formulated in a non-phytotoxic solvent mixture which included a surfactant.
(§2) At the same time, plants selected from these weed species and also wheat (Triticum aestivum), corn (Zea mays), blackgrass (Alopecurus myosuroides), and galium (catchweed bedstraw, Galium aparine) were planted in pots containing the same blend of loam soil and sand and treated with postemergence applications of test chemicals formulated in the same manner. Plants ranged in height from 2 to 10 cm and were in the one- to two-leaf stage for the postemergence treatment. Treated plants and untreated controls were maintained in a greenhouse for approximately 10 d, after which time all treated plants were compared to untreated controls and visually evaluated for injury. Plant response ratings, summarized in Table A, are based on a 0 to 100 scale where 0 is no effect and 100 is complete control. A dash (-) response means no test result.

[2] = test system: kochia (Kochia scoparia); assay: Test A preemergence, kochia; conditions: 0 to 100 scale
From the text: as §1, §2

[3] = test system: ryegrass, Italian (Lolium multiflorum); assay: Test A preemergence, Italian ryegrass; conditions: 0 to 100 scale
From the text: as §1, §2

[4] = test system: foxtail, giant (Setaria faberii); assay: Test A preemergence, giant foxtail; conditions: 0 to 100 scale
From the text: as §1, §2

[5] = test system: pigweed (Amaranthus retroflexus); assay: Test A preemergence, pigweed; conditions: 0 to 100 scale
From the text: as §1, §2

[6] = test system: barnyardgrass (Echinochloa crus-galli); assay: Test A postemergence, barnyardgrass; conditions: 0 to 100 scale
From the text: as §1, §2

[7] = test system: kochia (Kochia scoparia); assay: Test A postemergence, kochia; conditions: 0 to 100 scale
From the text: as §1, §2

[8] = test system: ragweed (common ragweed, Ambrosia elatior); assay: Test A postemergence, ragweed; conditions: 0 to 100 scale
From the text: as §1, §2

[9] = test system: ryegrass, Italian (Lolium multiflorum); assay: Test A postemergence, Italian ryegrass; conditions: 0 to 100 scale
From the text: as §1, §2

[10] = test system: foxtail, giant (Setaria faberii); assay: Test A postemergence, giant foxtail; conditions: 0 to 100 scale
From the text: as §1, §2

[11] = test system: pigweed (Amaranthus retroflexus); assay: Test A postemergence, pigweed; conditions: 0 to 100 scale
From the text: as §1, §2

[12] = test system: wheat (Triticum aestivum); assay: Test A postemergence, wheat; conditions: 0 to 100 scale
From the text: as §1, §2

[13] = test system: corn (Zea mays); assay: Test A postemergence, corn; conditions: 0 to 100 scale
From the text: as §1, §2

[14] = test system: blackgrass (Alopecurus myosuroides); assay: Test A postemergence, blackgrass; conditions: 0 to 100 scale
From the text: as §1, §2

[15] = test system: galium (catchweed bedstraw, Galium aparine); assay: Test A postemergence, galium; conditions: 0 to 100 scale
From the text: as §1, §2

[16] = test system: rice (Oryza sativa); assay: Test B flooded paddy test, rice; conditions: Flood, 250 g ai/ha, applied to paddy water, 2-leaf stage, visual evaluation after 13 to 15 d
Description: (§3) Plant species in the flooded paddy test selected from rice (Oryza sativa), sedge, umbrella (small-flower umbrella sedge, Cyperus difformis), ducksalad (Heteranthera limosa), and barnyardgrass (Echinochloa crus-galli) were grown to the 2-leaf stage for testing. At the time of treatment, test pots were flooded to 3 cm above the soil surface, treated by application of test compounds directly to the paddy water, and then maintained at that water depth for the duration of the test. Treated plants and controls were maintained in a greenhouse for 13 to 15 d, after which time all species were compared to controls and visually evaluated. Plant response ratings, summarized in Table B, are based on a scale of 0 to 100 where 0 is no effect and 100 is complete control. A dash (-) response means no test result.

[17] = test system: sedge, umbrella (small-flower umbrella sedge, Cyperus difformis); assay: Test B flooded paddy test, umbrella sedge; conditions: Flood, 250 g ai/ha, applied to paddy water, 2-leaf stage, visual evaluation after 13 to 15 d
Description: as §3

[18] = test system: ducksalad (Heteranthera limosa); assay: Test B flooded paddy test, ducksalad; conditions: Flood, 250 g ai/ha, applied to paddy water, 2-leaf stage, visual evaluation after 13 to 15 d
Description: as §3

[19] = test system: barnyardgrass (Echinochloa crus-galli); assay: Test B flooded paddy test, barnyardgrass; conditions: Flood, 250 g ai/ha, applied to paddy water, 2-leaf stage, visual evaluation after 13 to 15 d
Description: as §3

Compound: C[C@H](Nc1ncc(C(F)(F)F)c(N)n1)C1Cc2ccccc2C1 [Compound 12]
- Plant response rating, Barnyardgrass ([1]; 125 g ai/ha): 0
- Plant response rating, Barnyardgrass ([1]; 500 g ai/ha): 0
- Plant response rating, Kochia ([2]; 125 g ai/ha): 0
- Plant response rating, Kochia ([2]; 500 g ai/ha): 0
- Plant response rating, Ryegrass, Italian ([3]; 125 g ai/ha): 0
- Plant response rating, Ryegrass, Italian ([3]; 500 g ai/ha): 0
- Plant response rating, Foxtail, Giant ([4]; 125 g ai/ha): 0
- Plant response rating, Foxtail, Giant ([4]; 500 g ai/ha): 0
- Plant response rating, Pigweed ([5]; 125 g ai/ha): 0
- Plant response rating, Pigweed ([5]; 500 g ai/ha): 50
- Plant response rating, Barnyardgrass ([6]; 125 g ai/ha): 0
- Plant response rating, Barnyardgrass ([6]; 500 g ai/ha): 0
- Plant response rating, Kochia ([7]; 125 g ai/ha): 0
- Plant response rating, Kochia ([7]; 500 g ai/ha): 30
- Plant response rating, Ragweed ([8]; 125 g ai/ha): 0
- Plant response rating, Ragweed ([8]; 500 g ai/ha): 0
- Plant response rating, Ryegrass, Italian ([9]; 125 g ai/ha): 0
- Plant response rating, Ryegrass, Italian ([9]; 500 g ai/ha): 0
- Plant response rating, Foxtail, Giant ([10]; 125 g ai/ha): 0
- Plant response rating, Foxtail, Giant ([10]; 500 g ai/ha): 0
- Plant response rating, Pigweed ([11]; 125 g ai/ha): 30
- Plant response rating, Pigweed ([11]; 500 g ai/ha): 40
- Plant response rating, Wheat ([12]; 125 g ai/ha): 0
- Plant response rating, Wheat ([12]; 500 g ai/ha): 0
- Plant response rating, Corn ([13]; 125 g ai/ha): 0
- Plant response rating, Corn ([13]; 500 g ai/ha): 0
- Plant response rating, Blackgrass ([14]; 125 g ai/ha): 0
- Plant response rating, Blackgrass ([14]; 500 g ai/ha): 0
- Plant response rating, Galium ([15]; 125 g ai/ha): 0
- Plant response rating, Galium ([15]; 500 g ai/ha): 0
- Plant response rating, Rice (0 to 100 scale, 0 is no effect, 100 is complete control) [16]: 0
- Plant response rating, Sedge, Umbrella (0 to 100 scale, 0 is no effect, 100 is complete control) [17]: 0
- Plant response rating, Ducksalad (0 to 100 scale, 0 is no effect, 100 is complete control) [18]: 0
- Plant response rating, Barnyardgrass (0 to 100 scale, 0 is no effect, 100 is complete control) [19]: 0

Compound: Cc1cc2oc([C@@H](C)Nc3ncc(C(F)(F)F)c(N)n3)cc2cc1F [Compound 31]
- Plant response rating, Barnyardgrass ([1]; 125 g ai/ha): 70
- Plant response rating, Barnyardgrass ([1]; 500 g ai/ha): 100
- Plant response rating, Kochia ([2]; 125 g ai/ha): 40
- Plant response rating, Kochia ([2]; 500 g ai/ha): 90
- Plant response rating, Ryegrass, Italian ([3]; 125 g ai/ha): 20
- Plant response rating, Ryegrass, Italian ([3]; 500 g ai/ha): 80
- Plant response rating, Foxtail, Giant ([4]; 125 g ai/ha): 90
- Plant response rating, Foxtail, Giant ([4]; 500 g ai/ha): 100
- Plant response rating, Pigweed ([5]; 125 g ai/ha): 90
- Plant response rating, Pigweed ([5]; 500 g ai/ha): 100
- Plant response rating, Barnyardgrass ([6]; 125 g ai/ha): 20
- Plant response rating, Barnyardgrass ([6]; 500 g ai/ha): 80
- Plant response rating, Kochia ([7]; 125 g ai/ha): 60
- Plant response rating, Kochia ([7]; 500 g ai/ha): 90
- Plant response rating, Ragweed ([8]; 125 g ai/ha): 60
- Plant response rating, Ragweed ([8]; 500 g ai/ha): 90
- Plant response rating, Ryegrass, Italian ([9]; 125 g ai/ha): 30
- Plant response rating, Ryegrass, Italian ([9]; 500 g ai/ha): 10
- Plant response rating, Foxtail, Giant ([10]; 125 g ai/ha): 10
- Plant response rating, Foxtail, Giant ([10]; 500 g ai/ha): 70
- Plant response rating, Pigweed ([11]; 125 g ai/ha): 90
- Plant response rating, Pigweed ([11]; 500 g ai/ha): 100
- Plant response rating, Wheat ([12]; 125 g ai/ha): 0
- Plant response rating, Wheat ([12]; 500 g ai/ha): 0
- Plant response rating, Corn ([13]; 125 g ai/ha): 0
- Plant response rating, Corn ([13]; 500 g ai/ha): 30
- Plant response rating, Blackgrass ([14]; 125 g ai/ha): 20
- Plant response rating, Blackgrass ([14]; 500 g ai/ha): 10
- Plant response rating, Galium ([15]; 125 g ai/ha): 70
- Plant response rating, Galium ([15]; 500 g ai/ha): 100
- Plant response rating, Rice (0 to 100 scale, 0 is no effect, 100 is complete control) [16]: 0
- Plant response rating, Sedge, Umbrella (0 to 100 scale, 0 is no effect, 100 is complete control) [17]: 0
- Plant response rating, Ducksalad (0 to 100 scale, 0 is no effect, 100 is complete control) [18]: 0
- Plant response rating, Barnyardgrass (0 to 100 scale, 0 is no effect, 100 is complete control) [19]: 0
